Assay results: patent US11339124B2, “3-(benzylamino)-4-(cyclohexylamino)-n-(2-(piperazin-1-yl)ethyl)benzenesulfonamide derivatives and related ferrostatin-1 analogues as cell death inhibitors for treating e.g. stroke” (VIB VZW, priority 2018, dated 2022)
Values joined by “and” are separate entries in the source; they are usually repeats but may differ in a detail not shown here. Equal entries are not always repeated. Where two headings read alike, the source gives them in different places. Marks after values point to notes of the source that are not given here.

Assays:
[1] = tested on: IMR-32 Neuroblastoma cells; test: Erastin-induced ferroptosis in IMR-32 neuroblastoma cells (Sytox Green cell death readout); assay type: cell-based; conditions: Homo sapiens; IMR-32 cells, 10 μM erastin, compounds 1 nM to 1 μM, triplicate; read-out: IC50, antiferroptotic activity in response to erastin-induced ferroptosis
Experimental: In the present invention the potency of a compound inhibiting (or reducing) ferroptosis and/or oxytosis are determined in in vitro or in vivo assays. Typically in vitro assays are used to measure the potency of a candidate compound. Examples of suitable in vitro assays are cellular assays. One non-limiting example of an assay involves the use of the IMR-32 neuroblastoma cell line. The latter is stimulated to enter into ferroptosis upon stimulation with 10 μM erastin, a documented ferroptosis inducer (see for example Dixon et al (2012) Cell 149, 1060-1072 and ferroptosis inhibitors are evaluated for the prevention of erastin induced ferroptosis. Yet another assay is based the glutamate-induced cell death in the hippocampal cell line HT22 and ferroptosis/oxytosis inhibitors are evaluated for the prevention of cell death (see Henke N. et al (2013) Cell Death and Disease 4, e470). Still another assay is based on the sorafinib induced cell death (described to be iron dependent cell death) in hepatocellular carcinoma cells and ferroptosis inhibitors are evaluated for the prevention of cell death (see Louandre C. et al (2013) Int. J. Cancer 133, 1732). The calculated potency of a compound inhibiting ferroptosis and/or oxytosis is typically depicted as an IC50 value. Examples of suitable in vivo assays are typically pre-clinical disease models of for example mice for the diseases benefiting the application of ferroptosis and/or oxytosis inhibitors, as described herein. One non-limiting example of an in vivo assay is based on inducing liver damage in mice by administering the herbicide diquat dibromide monohydrate and ferroptosis inhibitors are evaluated based on reduced levels of liver transaminases in serum (see Ran Q et al (2004) J. Biol. Chem. 279, 53, 55137).
The IC50 values for the individual compounds of the invention were determined in the neuroblastoma, IMR-32 cell line. In brief, IMR-32 cells were subjected to 10 μM erastin, the latter compound is known to induce ferroptosis. A concentration gradient (ranging from 1 nM to 1 μM) of the compounds was applied to the cells. These experiments were performed in a 96-well format (in triplicate), and cell death was analyzed in a fluorescent plate reader by use of a fluorescent cell death dye (1.5 μM Sytox Green). The IC50 values depicted in Table 1 are the concentration values for the individual compounds which are able to overcome ferroptosis.

[2] = Plasma stability, rat plasma; assay type: in vitro ADME; conditions: 37° C., remaining parent compound, read-out: Plasma stability (% recovery after 6 h), Rat
Experimental: 5 μl of a 10 mM stock solution of the compound in DMSO was added to 995 μl of plasma to obtain a 50 μM final solution. The mixture was gently shaken for 6 h at 37° C. Aliquots of 100 μl were taken at various time points (0, 0.5 h, 1 h, 2 h, 3 h and 6 h) and diluted with 400 μl of cold methanol (stored at 4° C.). The suspension was centrifuged at 14000 rpm for 5 min. 50 μl of the supernatant was diluted with 950 μl of methanol and analysed with LC/MS/MS. The samples were analysed in triplicate. The experiment was done in duplicate. […] Enalapril maleate was used as a control in mice, rats, and in human.

[3] = In vivo pharmacokinetics, single iv administration to male Wistar rats (blood concentration); set-up: species or system rat; conditions: 5 mg/kg iv
Experimental: In order to estimate how these in vitro ADME parameters correlate to an in vivo setting, compound 39 was selected for a single intravenous (iv) administration to three male Wistar rats at a dose of 5 mg/kg. Blood samples were obtained at various time points. (0.083, 0.25, 0.5, 1, 2, 4, and 24 h) The concentration of 39 was determined using UPLC analysis coupled with tandem quadrupole mass spectrometry. […] Only in 1 sample a concentration of […] was determined 5 minutes after dosing.
Male Wistar rats (BW˜250 g; Janvier France) were housed individually and randomly allocated to groups of 3 animals each based on body weight. The animals were fasted overnight until 4 hours after dosing. Drinking water remained available ad libitum.
The test compound were kept at 4° C. until formulation. The compound was formulated in PEG200 at 10 mg/ml. The test formulation was prepared by LMPH and stored at room temperature.
Blood was collected from sublingual vein using capillary tubes under isoflurane anaesthesia. The blood was dropped (15 μL) on Whatman® FTA® DMPK B cards, dried at room temperature for at least 2 hours and further processed for analysis. A 6 mm disk was punched from the blood spot center, extracted in 75:25 ACN:H2O containing tolbutamide as internal standard (IS). […] The optimal DBS protocol (FTA DMPK-A or B card, extraction solvent) was determined in a preliminary experiment.

[4] = Tissue distribution in rats 24 h after iv dose; assay type: in vivo; conditions: rat, 5 mg/kg iv; for concentration at 24 h: male, Wistar, iv
Experimental: To assess the extent of tissue distribution of compound 39, various organs (liver, kidney and lungs) of all three rats were collected on ice at necropsy 24 hours after administration before being homogenized and analyzed.
Each rat received an iv dose at 5 mg/kg and the internal organs were collected at narcopsy at 24 h. The organs were homogenized and further processed by protein precipitation (n=3) and centrifugation. Analysis of the samples was conducted by LC-MS.
Tissues (liver, kidneys and lungs) were collected on ice at necropsy at 24 h (after prior exsanguination), homogenized using a gentle MACS™ Dissociator and stored at −80° C. until analysis. The tissue samples for LC-MS were further processed by protein precipitation (n=3) by diluting 20 μL of the homogenate with 80 μL ACN containing IS (tolbutamide). After centrifugation, the supernatant was further diluted in the appropriate solvent.

[5] = after 24 h, one value per rat, Hydrochloride, 5 mg/kg

SMILES	IC50 [1] [nM]	recovery at 6 h, 50 μM [2] [%]	Plasma concentration (below detection limit in nearly all samples) ([3]; 0.083-24 h) [ng/mL]	Plasma concentration in 1 sample ([3]; 5 minutes after dosing) [ng/mL]	concentration at 24 h ([4]; kidney, 5 mg/kg, after 24 h, one value per rat, read-out: Tissue distribution, Kidney) [ng/g]	concentration at 24 h ([4]; liver, 5 mg/kg, after 24 h, one value per rat, read-out: Tissue distribution, Liver) [ng/g]	concentration at 24 h ([4]; lung, 5 mg/kg, after 24 h, one value per rat, read-out: Tissue distribution, Lung) [ng/g]	Concentrations in all analyzed tissues (liver, kidney, lungs) ([4]; 24 hours after administration)	Tissue distribution, Kidney [4, 5]	Tissue distribution, Liver [4, 5]	Tissue distribution, Lung [4, 5]
Cl.NCCNS(=O)(=O)c1ccc(NC2CCCCC2)c(NCc2ccccc2)c1 [Compound 38, N-(2-aminoethyl)-3-(benzylamino)-4-(cyclohexylamino)benzenesulfonamide Hydrochloride]	12	100	–	–	–	–	–	–	–	–	–
Cl.O=S(=O)(NCCN1CCNCC1)c1ccc(NC2CCCCC2)c(NCc2ccccc2)c1 [Compound 39, 3-(benzylamino)-4-(cyclohexylamino)-N-(2-(piperazin-1-yl)ethyl)benzenesulfonamide Hydrochloride]	10	85.8	< 53.1	19.6	200	230	480	Significant concentrations	0.35 mg/kg organ and 0.38 mg/kg organ	0.22 mg/kg organ and 0.15 mg/kg organ	0.19^a mg/kg organ and 0.53 mg/kg organ
CNCCNS(=O)(=O)c1ccc(NC2CCCCC2)c(NCc2ccccc2)c1.Cl [Compound 37, 3-(benzylamino)-4-(cyclohexylamino)-N-(2-(methylamino)ethyl)benzenesulfonamide Hydrochloride]	3	65.8	–	–	–	–	–	–	–	–	–
